pEC50: −log10 of the molar value. Like-named read-outs stand apart in the source and are kept apart here.
Assays:
[1] = tested on: HIV/EBOV-GP pseudotype virus; experiment: organism not typed; assay type: cell-based, Ebola virus (EBOV); details: for EC50: A549, read-out: EC50, Ebola pseudovirus (in nM)
CYP2C9 = CYP2C9 (Homo sapiens, UniProt P11712)
CYP3A4 = CYP3A4 (Homo sapiens, UniProt P08684)
[2] = tested on: Wild type Ebola virus (1976 Mayinga variant); assay type: cell-based, Ebola virus (EBOV)
[3] = tested on: wild type MARV (Lake Victoria, 2005 Angola); experiment: organism not typed; assay type: cell-based, Marburg virus (MARV); details: Vero, read-out: MARV EC50, Vero cells

Sequence of CYP2C9 (P11712 whole entry): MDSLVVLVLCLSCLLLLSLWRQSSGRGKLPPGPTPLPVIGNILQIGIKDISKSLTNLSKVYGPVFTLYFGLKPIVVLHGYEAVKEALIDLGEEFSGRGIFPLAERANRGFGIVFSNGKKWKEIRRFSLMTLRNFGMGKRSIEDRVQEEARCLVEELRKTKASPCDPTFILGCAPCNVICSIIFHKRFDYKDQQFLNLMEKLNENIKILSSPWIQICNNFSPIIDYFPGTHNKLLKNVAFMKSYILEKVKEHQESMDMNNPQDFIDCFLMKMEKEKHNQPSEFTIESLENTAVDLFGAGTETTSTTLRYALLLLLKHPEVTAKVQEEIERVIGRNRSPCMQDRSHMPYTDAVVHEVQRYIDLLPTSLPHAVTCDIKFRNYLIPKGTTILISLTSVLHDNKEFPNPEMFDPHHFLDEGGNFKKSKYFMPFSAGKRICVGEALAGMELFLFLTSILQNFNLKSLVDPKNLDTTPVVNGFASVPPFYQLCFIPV
Sequence of CYP3A4 (P08684 whole entry): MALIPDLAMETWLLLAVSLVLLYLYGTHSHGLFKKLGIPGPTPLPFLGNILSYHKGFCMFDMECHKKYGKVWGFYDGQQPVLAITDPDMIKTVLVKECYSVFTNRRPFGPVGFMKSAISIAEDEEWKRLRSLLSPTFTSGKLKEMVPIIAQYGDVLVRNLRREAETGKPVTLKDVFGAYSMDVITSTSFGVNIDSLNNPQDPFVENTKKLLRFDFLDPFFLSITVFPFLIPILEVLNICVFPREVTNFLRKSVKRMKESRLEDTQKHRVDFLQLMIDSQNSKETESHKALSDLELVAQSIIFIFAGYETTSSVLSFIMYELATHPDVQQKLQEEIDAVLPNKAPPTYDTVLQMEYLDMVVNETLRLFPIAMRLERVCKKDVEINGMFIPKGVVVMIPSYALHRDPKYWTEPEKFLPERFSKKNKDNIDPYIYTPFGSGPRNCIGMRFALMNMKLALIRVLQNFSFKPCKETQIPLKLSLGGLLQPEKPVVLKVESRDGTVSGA

O=C(Nc1ccc(C23CC4CC(CC(C4)C2)C3)cc1)c1ccc(CN2CCOCC2)cc1 [Compound 33, N-(4-((1R,3R,5S)-Adamantan-1-yl)phenyl)-4-(morpholinomethyl)benzamide]
EC50 [1]: < 100 nM

O=C(NCCC1CCCCC1)c1ccc(CN2CCCCC2)cc1 [Compound 28, N-(2-Cyclohexylethyl)-4-(piperidin-1-ylmethyl)benzamide]
Drop in potency on replacing the aniline aromatic ring with a two-carbon linker [1]: 2.3 fold

COC(=O)c1ccc(NC(=O)c2ccc(CN3CCN(C)CC3)cc2)cc1 [Compound 7, Methyl 4-(4-((4-methylpiperazin-1-yl)methyl)benzamido)benzoate]
inhibition at 12.5 µM ([1]; A549, read-out: Ebola pseudovirus A549 cells % inhibition): 29%

O=C(Nc1ccc(C23CC4CC(CC(C4)C2)C3)cc1)c1ccc(CN2CCCCC2)cc1 [Compound 32, N-(4-((1R,3R,5S)-adamantan-1-yl)phenyl)-4-(piperidin-1-ylmethyl)benzamide]
EC50 [1]: < 100 nM | CYP450 inhibition CYP2C9 IC50 (CYP2C9): did not inhibit | CYP450 inhibition CYP3A4 IC50 (CYP3A4): did not inhibit

O=C(Nc1ccc(N2CCC(F)(F)CC2)cc1)c1ccc(CN2CCCCC2)cc1 [Compound 34, N-(4-(4,4-Difluoropiperidin-1-yl)phenyl)-4-(piperidin-1-ylmethyl)benzamide]
pEC50 ([1]; A549, read-out: Ebola pseudovirus A549 cells EC50): > 6.00

COC(=O)c1ccc(NC(=O)c2ccc(CN3CCCCC3)cc2)cc1 [Compound 5, Methyl 4-(4-(piperidin-1-ylmethyl)benzamido)benzoate]
EBOV (HeLa) EC50 [2]: inactive | pEC50 [3]: > 5.00

From article PMC7671190 (Journal of medicinal chemistry, 2020)
